Laboratory results reported in patent US20150031554A1, “EXTRACELLULAR TELOMERE ASSAY” (The UAB Research Foundation, priority 2012, published 2015).

What was measured:
[1] = test system: U373, a human brain cancer cell line; experiment: Extracellular telomere release into conditioned media (qPCR); assay type: cell-based; details: in response to doxorubicin treatment (FIG. 2A)
Description: (§1) The samples to be tested were centrifuged at 1200×g for 6 minutes to remove residual cells. The supernatant was removed and centrifuged at 12,000× for 12 minutes to remove cellular debris. DNA was isolated from the final supernatant using a Qiagen DNA isolation kit. The DNA concentration of each sample was determined with the highly sensitive pico-green fluorometric assay (Invitrogen; Carlsbad, Calif.).
(§2) The obtained purified cell-free DNA was assayed for extracellular telomere sequences. Extracellular telomeres were measured using quantitative PCR (qPCR) with the widely accepted method of Cawthon (“Telomere measurement by quantitative PCR,” Nucleic Acids Research, 30:e47 (2002)). Other DNA sequences (actin, BRCA 1, alpha satellite DNA, and Alu repeats) were analyzed using published primers and conditions. Normal human genomic DNA (Roche; Basel, Switzerland) was used to create a telomere qPCR standard curve for the clinical specimens. For mouse standard curves, normal mouse genomic DNA isolated from murine peripheral blood cells was used.

[2] = test system: D54, a human brain cancer cell line; experiment: as above; assay type: cell-based; details: in response to doxorubicin treatment (FIG. 2B)
Description: as §1, §2

[3] = test system: human MDA-MB-23 1 breast cancer cells; experiment: Extracellular telomere release into cell-free conditioned media (qPCR); assay type: cell-based
Description: as §1, §2

[4] = test system: G-quadruplex; details: versus duplex, single strand, and hairpins; method of Balasubramanian et al.; cited from earlier work

SMILES	extracellular telomere release [1]	extracellular telomere release [2]	extracellular telomere release ([3]; doxorubicin 10^−5 M, indicated times, Alu and alpha satellite sequences as controls (FIG. 1))	telomere enrichment in cell-free conditioned media ([3]; qPCR, compared with untreated cells or cells subjected to hypoxia, 2 independent experiments (FIG. 5))	selectivity of capture [4]
COc1cccc2c1C(=O)c1c(O)c3c(c(O)c1C2=O)C[C@@](O)(C(=O)CO)C[C@@H]3O[C@H]1C[C@H](N)[C@H](O)[C@H](C)O1 [doxorubicin]	extracellular telomere release	extracellular telomere release	specifically released	highly enriched	
NCCOc1cc(C(=O)Nc2cc(OCCN)c3ccccc3n2)nc(C(=O)Nc2cc(OCCN)c3ccccc3n2)c1 [compound 2, pyridostatin]					selective for G-quadruplex capture over other DNA structural motifs
